Data reported in PubChem BioAssay (NCI).
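Method: 48-hour compound exposure of cells in 96-well plates, five concentrations, linear interpolation of endpoints. Definition used: TGI = concentration required for complete inhibition of growth.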

How the values were obtained:
Test in all cases: inhibition of tumour cell growth, NCI panel, 48 h
786-0 renal = test system: 786-0 renal
A498 renal = test system: A498 renal
A549 NSCLC = test system: A549 NSCLC
ACHN renal = test system: ACHN renal
CAKI-1 renal = test system: CAKI-1 renal
CCRF-CEM leukemia = test system: CCRF-CEM leukemia
COLO 205 colon = test system: COLO 205 colon
DLD-1 colon = test system: DLD-1 colon
DMS 114 small cell lung = test system: DMS 114 small cell lung
DMS 273 small cell lung = test system: DMS 273 small cell lung
EKVX NSCLC = test system: EKVX NSCLC
HCC-2998 colon = test system: HCC-2998 colon
HCT-116 colon = test system: HCT-116 colon
HCT-15 colon = test system: HCT-15 colon
HL-60(TB) leukemia = test system: HL-60(TB) leukemia
HOP-18 NSCLC = test system: HOP-18 NSCLC
HOP-62 NSCLC = test system: HOP-62 NSCLC
HOP-92 NSCLC = test system: HOP-92 NSCLC
HT29 colon = test system: HT29 colon
IGROV1 ovarian = test system: IGROV1 ovarian
K-562 leukemia = test system: K-562 leukemia
KM12 colon = test system: KM12 colon
KM20L2 colon = test system: KM20L2 colon
LOX IMVI melanoma = test system: LOX IMVI melanoma
LXFL 529 NSCLC = test system: LXFL 529 NSCLC
M14 melanoma = test system: M14 melanoma
M19-MEL melanoma = test system: M19-MEL melanoma
MALME-3M melanoma = test system: MALME-3M melanoma
MOLT-4 leukemia = test system: MOLT-4 leukemia
NCI-H23 lung = test system: NCI-H23 lung
NCI-H460 lung = test system: NCI-H460 lung
OVCAR-3 ovarian = test system: OVCAR-3 ovarian
OVCAR-4 ovarian = test system: OVCAR-4 ovarian
OVCAR-5 ovarian = test system: OVCAR-5 ovarian
OVCAR-8 ovarian = test system: OVCAR-8 ovarian
RPMI-8226 leukemia = test system: RPMI-8226 leukemia
RXF 393 renal = test system: RXF 393 renal
SF-268 CNS = test system: SF-268 CNS
SF-295 CNS = test system: SF-295 CNS
SF-539 CNS = test system: SF-539 CNS
SK-MEL-2 melanoma = test system: SK-MEL-2 melanoma
SK-MEL-5 melanoma = test system: SK-MEL-5 melanoma
SK-OV-3 ovarian = test system: SK-OV-3 ovarian
SN12C renal = test system: SN12C renal
SNB-19 CNS = test system: SNB-19 CNS
SNB-75 CNS = test system: SNB-75 CNS
SNB-78 CNS = test system: SNB-78 CNS
SW-620 colon = test system: SW-620 colon
TK-10 renal = test system: TK-10 renal
U251 CNS = test system: U251 CNS
UACC-257 melanoma = test system: UACC-257 melanoma
UACC-62 melanoma = test system: UACC-62 melanoma
UO-31 renal = test system: UO-31 renal
XF 498 CNS = test system: XF 498 CNS
NCI-H226 lung = test system: NCI-H226 lung
NCI-H522 lung = test system: NCI-H522 lung
SK-MEL-28 melanoma = test system: SK-MEL-28 melanoma
SR leukemia = test system: SR leukemia
BT-549 breast = test system: BT-549 breast
DU-145 prostate = test system: DU-145 prostate
HS 578T breast = test system: HS 578T breast
MCF7 breast = test system: MCF7 breast
MDA-MB-231 breast = test system: MDA-MB-231 breast
PC-3 prostate = test system: PC-3 prostate
T-47D breast = test system: T-47D breast

Nc1ncnc2c1ncn2C1OC(CSCc2ccc(Cl)cc2)C(O)C1O (stereo not given)
TGI (786-0 renal): > 100 µM | TGI (A498 renal): 96 µM | TGI (A549 NSCLC): > 100 µM | TGI (ACHN renal): > 100 µM | TGI (CAKI-1 renal): 54 µM | TGI (CCRF-CEM leukemia): > 100 µM | TGI (COLO 205 colon): > 100 µM | TGI (DLD-1 colon): > 100 µM | TGI (DMS 114 small cell lung): 59.7 µM | TGI (DMS 273 small cell lung): 84.7 µM | TGI (EKVX NSCLC): > 100 µM | TGI (HCC-2998 colon): > 100 µM | TGI (HCT-116 colon): 61.4 µM | TGI (HCT-15 colon): > 100 µM | TGI (HL-60(TB) leukemia): 62.2 µM | TGI (HOP-18 NSCLC): > 100 µM | TGI (HOP-62 NSCLC): 64.3 µM | TGI (HOP-92 NSCLC): 32.3 µM | TGI (HT29 colon): > 100 µM | TGI (IGROV1 ovarian): > 100 µM | TGI (K-562 leukemia): > 100 µM | TGI (KM12 colon): 77.4 µM | TGI (KM20L2 colon): > 100 µM | TGI (LOX IMVI melanoma): > 100 µM | TGI (LXFL 529 NSCLC): 48.3 µM | TGI (M14 melanoma): 36.7 µM | TGI (M19-MEL melanoma): > 100 µM | TGI (MALME-3M melanoma): > 100 µM | TGI (MOLT-4 leukemia): 46 µM | TGI (NCI-H23 lung): 71.5 µM | TGI (NCI-H460 lung): > 100 µM | TGI (OVCAR-3 ovarian): > 100 µM | TGI (OVCAR-4 ovarian): > 100 µM | TGI (OVCAR-5 ovarian): > 100 µM | TGI (OVCAR-8 ovarian): > 100 µM | TGI (RPMI-8226 leukemia): 67.3 µM | TGI (RXF 393 renal): 73.8 µM | TGI (SF-268 CNS): > 100 µM | TGI (SF-295 CNS): > 100 µM | TGI (SF-539 CNS): > 100 µM | TGI (SK-MEL-2 melanoma): 68.7 µM | TGI (SK-MEL-5 melanoma): 90.9 µM | TGI (SK-OV-3 ovarian): > 100 µM | TGI (SN12C renal): > 100 µM | TGI (SNB-19 CNS): > 100 µM | TGI (SNB-75 CNS): 58.5 µM | TGI (SNB-78 CNS): > 100 µM | TGI (SW-620 colon): > 100 µM | TGI (TK-10 renal): > 100 µM | TGI (U251 CNS): > 100 µM | TGI (UACC-257 melanoma): > 100 µM | TGI (UACC-62 melanoma): > 100 µM | TGI (UO-31 renal): 56 µM | TGI (XF 498 CNS): 85.9 µM

Cc1cc(OCC(O)CO)ccc1-c1ccccc1 (stereo not given)
TGI (786-0 renal): > 100 µM | TGI (A498 renal): 80.4 µM | TGI (A549 NSCLC): > 100 µM | TGI (ACHN renal): > 100 µM | TGI (CAKI-1 renal): > 100 µM | TGI (CCRF-CEM leukemia): > 100 µM | TGI (COLO 205 colon): > 100 µM | TGI (DMS 114 small cell lung): > 100 µM | TGI (DMS 273 small cell lung): > 100 µM | TGI (EKVX NSCLC): > 100 µM | TGI (HCC-2998 colon): > 100 µM | TGI (HCT-116 colon): > 100 µM | TGI (HCT-15 colon): > 100 µM | TGI (HL-60(TB) leukemia): > 100 µM | TGI (HOP-18 NSCLC): > 100 µM | TGI (HOP-92 NSCLC): > 100 µM | TGI (HT29 colon): > 100 µM | TGI (IGROV1 ovarian): > 100 µM | TGI (K-562 leukemia): > 100 µM | TGI (KM12 colon): > 100 µM | TGI (KM20L2 colon): > 100 µM | TGI (LXFL 529 NSCLC): > 100 µM | TGI (M14 melanoma): > 100 µM | TGI (M19-MEL melanoma): > 100 µM | TGI (MALME-3M melanoma): > 100 µM | TGI (MOLT-4 leukemia): > 100 µM | TGI (NCI-H226 lung): > 100 µM | TGI (NCI-H23 lung): > 100 µM | TGI (NCI-H460 lung): > 100 µM | TGI (NCI-H522 lung): > 100 µM | TGI (OVCAR-3 ovarian): > 100 µM | TGI (OVCAR-4 ovarian): > 100 µM | TGI (OVCAR-8 ovarian): > 100 µM | TGI (RXF 393 renal): 87.1 µM | TGI (SF-268 CNS): > 100 µM | TGI (SK-MEL-2 melanoma): > 100 µM | TGI (SK-MEL-28 melanoma): > 100 µM | TGI (SK-MEL-5 melanoma): > 100 µM | TGI (SN12C renal): > 100 µM | TGI (SNB-19 CNS): > 100 µM | TGI (SNB-75 CNS): > 100 µM | TGI (SNB-78 CNS): > 100 µM | TGI (SR leukemia): > 100 µM | TGI (SW-620 colon): 23.7 µM | TGI (TK-10 renal): > 100 µM | TGI (U251 CNS): > 100 µM | TGI (UACC-257 melanoma): > 100 µM | TGI (UACC-62 melanoma): > 100 µM | TGI (UO-31 renal): > 100 µM | TGI (XF 498 CNS): > 100 µM

COc1cc2c(c(OC)c1OC)-c1cccc(=O)cc1C(NC(C)=O)CC2 (stereo not given)
TGI (786-0 renal): > 63.1 µM | TGI (A498 renal): 14.7 µM | TGI (A549 NSCLC): > 100 µM | TGI (ACHN renal): > 100 µM | TGI (BT-549 breast): > 100 µM | TGI (CAKI-1 renal): > 100 µM | TGI (CCRF-CEM leukemia): > 100 µM | TGI (COLO 205 colon): 1.79 µM | TGI (DMS 114 small cell lung): 0.391 µM | TGI (DMS 273 small cell lung): > 100 µM | TGI (DU-145 prostate): > 100 µM | TGI (EKVX NSCLC): > 100 µM | TGI (HCC-2998 colon): > 13.6 µM | TGI (HCT-116 colon): 25.6 µM | TGI (HCT-15 colon): > 100 µM | TGI (HL-60(TB) leukemia): 0.472 µM | TGI (HOP-18 NSCLC): > 100 µM | TGI (HOP-62 NSCLC): > 39.6 µM | TGI (HOP-92 NSCLC): 4.92 µM | TGI (HS 578T breast): > 100 µM | TGI (IGROV1 ovarian): > 100 µM | TGI (K-562 leukemia): > 100 µM | TGI (KM12 colon): 1.75 µM | TGI (KM20L2 colon): 1.86 µM | TGI (LOX IMVI melanoma): > 100 µM | TGI (LXFL 529 NSCLC): > 100 µM | TGI (M14 melanoma): > 67.8 µM | TGI (M19-MEL melanoma): > 100 µM | TGI (MALME-3M melanoma): > 100 µM | TGI (MCF7 breast): > 100 µM | TGI (MDA-MB-231 breast): > 100 µM | TGI (MOLT-4 leukemia): > 100 µM | TGI (NCI-H226 lung): 14.8 µM | TGI (NCI-H23 lung): 11.1 µM | TGI (NCI-H460 lung): 3.47 µM | TGI (NCI-H522 lung): 0.203 µM | TGI (OVCAR-3 ovarian): 1.16 µM | TGI (OVCAR-4 ovarian): > 100 µM | TGI (OVCAR-5 ovarian): > 100 µM | TGI (OVCAR-8 ovarian): > 16.7 µM | TGI (PC-3 prostate): > 100 µM | TGI (RPMI-8226 leukemia): > 100 µM | TGI (RXF 393 renal): 0.952 µM | TGI (SF-268 CNS): > 100 µM | TGI (SF-295 CNS): 0.267 µM | TGI (SF-539 CNS): 0.229 µM | TGI (SK-MEL-2 melanoma): > 24.8 µM | TGI (SK-MEL-28 melanoma): > 100 µM | TGI (SK-MEL-5 melanoma): 3.16 µM | TGI (SN12C renal): > 100 µM | TGI (SNB-19 CNS): > 100 µM | TGI (SNB-78 CNS): > 100 µM | TGI (SR leukemia): > 100 µM | TGI (SW-620 colon): > 100 µM | TGI (T-47D breast): > 100 µM | TGI (TK-10 renal): > 100 µM | TGI (U251 CNS): > 100 µM | TGI (UACC-257 melanoma): > 100 µM | TGI (UACC-62 melanoma): > 100 µM | TGI (UO-31 renal): > 100 µM | TGI (XF 498 CNS): 12.3 µM
